Test results taken from patent US7205003B2, “Method and topical formulation for treating skin conditions associated with aging” (Dermatrends, Inc., priority 2001, dated 2007).
Where two headings read alike, the source gives them in different places.

Legend:
[1] = cited from earlier work
[2] = in vitro keratolysis study: protein released from ground adult foot callus, BioRad protein assay
Experimental: An in vitro keratolysis study was performed to compare the capability of glycolic acid and a base for removing protein from stratum corneum. Adult foot callus was collected, grounded and the portion between 50–80 mesh was used. Glycolic acid and sodium hydroxide solutions (concentration =0.05 M) were prepared in distilled water. Ten mg of ground callus powder was place in a test tube. Four ml of a test chemical was added to the callus and the test tube was placed in a shaker and incubated in a water bath at 37° C. for a predetermined incubation time. The incubation time periods were 10 min., 40 min, 2 hours, 4 hours, 6 hours and 24 hours. Six samples of each base were tested a total of six times each at each of the aforementioned incubation time periods.
At the end of each incubation period, the test tube was removed from the shaker and the test tube was centrifuged. The solution was removed and filtered, and the protein in the solution was then determined using a BioRad® protein assay kit.

[3] = cited from earlier work; remark: listed apart in the source
[4] = Example 1, 0.05 M, all time points, versus glycolic acid / water control
[5] = Example 2, 0.05 M, 10 minutes, versus glycolic acid, other bases, water control

O=C([O-])CC(O)(CC(=O)[O-])C(=O)[O-].[K+].[K+].[K+] [Potassium citrate]
pH of Aqueous Solution ([1]; concentration not given): ~8.5

N [Ammonium hydroxide]
pH of Aqueous Solution ([1]; 0.001 N): 10.27
pH of Aqueous Solution ([1]; 1 N): 11.27

OCCNCCO [Diethanolamine]
pH of Aqueous Solution ([1]; 0.1 N): 11.0 (0.1 N)

O=C(O)CO [Glycolic Acid, reference compound]
protein released, comparison in words [2, 4]: did not show statistical differences in comparison with water
protein released, comparison in words [2, 5]: did not show significant differences in comparison with water

N.N.O=P(O)(O)O [Ammonium phosphate, dibasic]
pH of Aqueous Solution ([1]; concentration not given): ~8

CC(C)(N)CO [2-amino-2-methyl-1-propanol]
pH of Aqueous Solution ([1]; 0.1 m): 11.3 (0.1 m)

[Na+].[OH-] [NaOH, Sodium hydroxide]
amounts of protein released at 6 hours and 24 hours versus 10 minutes, 40 minutes, 2 hours and 4 hours ([2]; Example 1, 0.05 M): significantly higher
protein released, comparison in words [2, 4]: released more protein
protein released, comparison in words [2, 5]: released more protein
pH of Aqueous Solution ([1]; 0.05%): 12
pH of Aqueous Solution ([1]; 0.5%): 13
pH of Aqueous Solution ([1]; 5%): 14

[O]=[Mg] [Magnesium oxide]
pH of Aqueous Solution ([1]; saturated solution in water): 10.3 (saturated aqueous solution)

O=C([O-])[O-].[Na+].[Na+] [Sodium carbonate anhydrous]
pH of Aqueous Solution ([1]; concentration not given): ~11.6

O.O.O.O.O.O.O.O=P([O-])([O-])O.[Na+].[Na+] [Sodium phosphate, dibasic, heptahydrate]
pH of Aqueous Solution ([1]; concentration not given): ~9.5

O.O.O.O.O.O.O.O.O.O.O.O.O=P([O-])([O-])[O-].[Na+].[Na+].[Na+] [Sodium phosphate, tribasic dodecahydrate]
pH of Aqueous Solution ([1]; 0.1%): 11.5
pH of Aqueous Solution ([1]; 0.5%): 11.7
pH of Aqueous Solution ([1]; 1.0% (1%)): 11.9

CC(N)(CO)CO [2-amino-2-methyl-1,3-propanediol]
pH of Aqueous Solution ([1]; 0.1 m): 10.8 (0.1 m)

O.O.O=P([O-])([O-])O.[Na+].[Na+] [Sodium phosphate, dibasic, dihydrate]
pH of Aqueous Solution ([1]; concentration not given): ~9.5

O=P([O-])([O-])O.[Na+].[Na+] [Sodium phosphate, dibasic]
pH of Aqueous Solution ([1]; concentration not given): ~9.5

[O]=[Ca] [Calcium oxide]
solubility in water, in words [3]: Soluble in water, Form Ca(OH)2

CC(=O)[O-].[Na+] [Sodium acetate, anhydrous]
pH of Aqueous Solution ([1]; 0.1 N): ~8.9 (0.1 N)

O=P([O-])([O-])O.[Na+].[Na+] [Sodium phosphate, dibasic, anhydrous]
pH of Aqueous Solution ([1]; 1.0% (1%)): 9.1 (1%)

O.O.O.O.O.O.O.O.O.O.O.O.O=P([O-])([O-])O.[Na+].[Na+] [Sodium phosphate, dibasic, dodecahydrate]
pH of Aqueous Solution ([1]; concentration not given): ~9.5
